Assay results reported in paper PMC12799421, “Inhibition of constitutive activity of the atypical chemokine receptor 3 by the small-molecule inverse agonist VUF16840” (Molecular Pharmacology, 2025).

How the values were obtained:
Assay type in all cases: cell-based
[1] = biological target: CCR3 (Homo sapiens, UniProt P51677); assay: NanoBiT β-arrestin2 recruitment to CCR3, concentration-response
Description: (§1) The pharmacological modulation of all chemokine receptors by VUF16840 was performed according to an established method.[8]^,[23]^,[39] Briefly, β-arrestin2 recruitment to chemokine receptors in response to 1 μM VUF16840 or positive control chemokines was monitored by NanoLuc complementation assay (NanoBiT, Promega). Four hours after transfection, cells were harvested, incubated for 25 minutes at 37 °C with furimazine and distributed into a white 96-well plates (1 × 10^5 cells per well). β-Arrestin2 recruitment was then detected for 20 minutes upon treatment with 1 μM VUF16840 (or increasing concentrations ligand for experiments with CC chemokine receptor [CCR3]) using the Mithras LB940 luminometer (Berthold Technologies). To evaluate the antagonist properties of VUF16840, full agonists of each receptor were added after the 20-minute incubation with VUF16840. Signal from wells treated with full agonist only was defined as 100% activity and signals from wells treated with no agonist were used to set 0% activity.
Supplemental Figure 5 – Modulation of CCR3 receptor by VUF16840. Recruitment of β-arrestin2 towards CCR3 chemokine receptor was measured using a NLuc complementation assay in HEK293T cells. The concentration-dependent activation of the CCR3 was determined for VUF16840 and the endogenous agonist CCL13. All values depict the mean ± SD of ≥ 3 experiments.

[2] = biological target: T1, hCXCR4-NLuc (Homo sapiens, UniProt P61073); assay: Bystander BRET detection of CXCR4 membrane localization; conditions: 1 μM VUF16840
T1 construct: expressed in transfected cells; host or cells: HEK293T
Description: Ligand-induced receptor mobilization to the plasma membrane was monitored by bystander NanoBRET according to an established method.[36] For this assay, 5 × 10^6 HEK293T cells were seeded in 10-cm dishes and cotransfected with plasmids encoding ACKR3 C-terminally tagged with NLuc and mNeonGreen N-terminally tagged with the plasma membrane targeting sequence corresponding to the first 11 residues ([…]) of the human Lyn-kinase.[37] Twenty-four hours after transfection, cells were distributed into black 96-well plates (1 × 10^5 cells per well) and treated with chemokines (100 nM). After 45-minute incubation at 37 °C, coelenterazine H (10 μM) was added and donor emission (460 nm) and acceptor emission (535 nm) were immediately measured on a GloMax Discover (Promega) plate reader.
The resulting proximity between hACKR3-NLuc and was determined as bystander BRET. […] (B) The same assay was performed as in A for hCXCR4-NLuc. […] Expression of hACKR3-NLuc at the cell surface was determined by the measurement of bystander BRET. Depicted data represents the mean ± SD of 3 experiments with triplicate measurements per experiment.

[3] = biological target: T2, hACKR3-NLuc (Homo sapiens, UniProt P25106); assay: Bystander BRET detection of ACKR3 membrane localization; conditions: 1 μM VUF16840
T2 construct: expressed in transfected cells; host or cells: HEK293T

[4] = system: panel of 19 human chemokine receptors; assay: NanoBiT-complementation based chemokine receptor screen (agonist and antagonist mode)
Description: as §1, with “activity. […]” for “activity.”
Fig. 4 Modulation of a panel of chemokine receptors by VUF16840. β-Arrestin2 recruitment toward a full panel of 19 chemokine receptor was measured using a NLuc complementation assay in HEK293T cells. […]

[5] = biological target: T3, hCXCR4 (Homo sapiens, UniProt P61073); assay: BRET β-arrestin2 recruitment to hCXCR4 in HEK293T cells; conditions: in the presence or absence of 100 nM CXCL12
T3 construct: The CXCR4-Rluc8 fusion protein corresponds to CXCR4 isoform b (NCBI: NM_003467.2); expressed in transfected cells; host or cells: HEK293T
Excerpt: The NLuc-ACKR3 plasmid was a kind gift from Prof Hill (Nottingham University, Nottingham, United Kingdom),[31] […] The mVenus-CAAX and the hACKR3-NLuc constructs have been described by Zarca et al.[23] The sequence of the used ACKR3 constructs corresponds to National Center for Biotechnology Information (NCBI) database entry NM_020311.3. Radioligand binding studies used a mammalian expression vector pcDEF3 encoding ACKR3, N-terminally fused to an HA-tag and C-terminally fused to a triple Alanine tag (NotI). This construct was the template for the C-terminal ACKR3 fusion with the luminescent Rluc8 protein (NCBI: EF446136.1). The CXCR4-Rluc8 fusion protein corresponds to CXCR4 isoform b (NCBI: NM_003467.2) fused at the C-terminus with a triple Alanine linker (NotI) before the Rluc8 protein.
For 1·10^6 HEK293T cells, a transfection mix consisting of 2 μg plasmid DNA, 12 μg linear PEI in a total volume of 200 μL 150 mM NaCl was made and thoroughly vortexed. The transfection mix was incubated for 15 minutes and consequently added to a cell suspension with a final concentration of 3·10^5 cells/mL. […]
Fig. 2 VUF16840 inhibits constitutive as well as agonist induced β-arrestin2 recruitment to ACKR3. […] Subsequently, β-arrestin2 recruitment to hACKR3 was detected by NanoBiT complementation. […]

CCR3, sequence (P51677 whole entry): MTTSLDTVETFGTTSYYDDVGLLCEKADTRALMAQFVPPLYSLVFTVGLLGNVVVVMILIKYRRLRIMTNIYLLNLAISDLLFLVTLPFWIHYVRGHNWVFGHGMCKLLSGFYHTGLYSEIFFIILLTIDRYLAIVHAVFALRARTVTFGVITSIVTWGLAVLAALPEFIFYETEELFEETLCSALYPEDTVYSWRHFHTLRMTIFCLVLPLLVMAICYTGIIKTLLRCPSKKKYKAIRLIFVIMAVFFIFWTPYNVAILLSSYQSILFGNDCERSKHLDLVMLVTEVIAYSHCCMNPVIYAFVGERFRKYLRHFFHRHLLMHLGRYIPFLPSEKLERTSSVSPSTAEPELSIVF
CCR3, sequence (P32121 whole entry partner): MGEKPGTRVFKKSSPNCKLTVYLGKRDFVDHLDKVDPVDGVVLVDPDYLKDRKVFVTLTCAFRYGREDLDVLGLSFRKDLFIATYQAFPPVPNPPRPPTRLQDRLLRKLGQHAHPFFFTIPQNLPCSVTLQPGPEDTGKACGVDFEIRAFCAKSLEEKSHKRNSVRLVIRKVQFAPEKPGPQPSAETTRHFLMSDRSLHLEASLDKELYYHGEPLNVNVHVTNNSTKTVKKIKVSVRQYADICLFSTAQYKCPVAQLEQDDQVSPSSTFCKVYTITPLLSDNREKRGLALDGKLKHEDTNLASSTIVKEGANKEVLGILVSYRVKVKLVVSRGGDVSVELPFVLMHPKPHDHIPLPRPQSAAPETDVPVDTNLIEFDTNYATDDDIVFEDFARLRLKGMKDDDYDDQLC
T1 sequence (P61073 whole entry): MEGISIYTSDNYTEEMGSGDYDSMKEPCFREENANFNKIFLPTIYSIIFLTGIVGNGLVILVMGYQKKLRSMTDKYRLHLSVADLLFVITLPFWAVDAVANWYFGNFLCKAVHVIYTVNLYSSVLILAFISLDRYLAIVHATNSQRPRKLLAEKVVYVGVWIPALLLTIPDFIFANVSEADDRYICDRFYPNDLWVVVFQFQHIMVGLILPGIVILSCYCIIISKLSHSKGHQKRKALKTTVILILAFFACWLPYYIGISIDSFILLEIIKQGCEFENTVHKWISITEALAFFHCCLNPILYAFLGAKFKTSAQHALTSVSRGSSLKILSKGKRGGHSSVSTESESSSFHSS
T3 sequence (P61073 whole entry, the tested form may be a part, canonical isoform): as the sequence (P61073 whole entry) above
T2 sequence (P25106 whole entry): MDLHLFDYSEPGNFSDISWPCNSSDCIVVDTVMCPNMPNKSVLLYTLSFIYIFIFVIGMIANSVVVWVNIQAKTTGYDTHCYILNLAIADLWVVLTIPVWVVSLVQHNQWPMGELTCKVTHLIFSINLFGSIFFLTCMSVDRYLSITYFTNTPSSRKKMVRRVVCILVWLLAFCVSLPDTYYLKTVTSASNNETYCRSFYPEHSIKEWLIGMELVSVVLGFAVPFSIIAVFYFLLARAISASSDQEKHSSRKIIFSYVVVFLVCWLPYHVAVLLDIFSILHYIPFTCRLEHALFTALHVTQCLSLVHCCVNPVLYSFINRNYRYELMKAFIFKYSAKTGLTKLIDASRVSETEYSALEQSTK

EC50 ([1]; HEK293T, NanoBiT, read-out: EC50, activation of CCR3 (β-arrestin2 recruitment)): 0.2 µM
efficacy at CCR3 relative to endogenous agonist CCL13 ([1]; β-arrestin2 recruitment): 1.4 fold
effect on CXCR4 surface expression (bystander BRET) [2]: not affected
effect on bystander BRET signal hACKR3-NLuc / membrane-targeted mNeonGreen (cell surface localization) [3]: increased the bystander BRET signals
effect on β-arrestin2 recruitment to CXCR4 [5]: did not affect
Structure (SMILES): COc1ccccc1CCNC(=O)C1CN(C2CCCCC2)CCC1NC(=O)c1cc(-c2ccc(F)cc2F)on1 (stereo not shown) [VUF16840]
agonist mode screen, modulation of β-arrestin2 recruitment ([4]; 1 μM VUF16840): only modulated β-arrestin2 recruitment to hACKR3 and hCCR3
antagonist-mode inhibition of any tested chemokine receptor ([4]; 1 μM VUF16840 coincubated with respective endogenous agonist): ≤ 50%
